Assay results taken from publication PMC5333415, “Enhancement of scutellarin oral delivery efficacy by vitamin B12-modified amphiphilic chitosan derivatives to treat type II diabetes induced-retinopathy” (Journal of Nanobiotechnology, 2017).
In brackets after ≈: the same amount, converted by molar mass. Like-named read-outs stand apart in the source and are kept apart here.

How the values were obtained:
Solubility = type: physicochemical
[1] = system: membranes over expressing several common transporters; set-up: method as in PMID 27586020; settings: cited from earlier work
vWF = assay: Western blot of retinal homogenates, vWF; type: in vivo, Sprague–Dawley rats; settings: diabetic rats, 40 mg/kg/day scutellarin, 8 weeks, compared to diabetic rats treated with or without Chit-DC
Description: (§1) Type 2 diabetes was induced in male Sprague–Dawley rats (weighing 230–250 g, Experimental Animal Center of Sun Yat-sen University, China. Certificate No: SCXK (Q) 2011-0029). All animals were housed five per cage in a room and maintained at a constant temperature (22 °C) under a 12/12 h light/dark cycle. All procedures were carried out according to the National Institutes of Health Guide for Care and Use of Laboratory Animals and were approved by the Bioethics Committee of Sun Yat-sen University. Rats were randomly assigned to a control group, a Scu group (normal rats with 40 mg/kg/day scutellarin treatments), and five type II diabetes model groups (n = 8/group). The control and Scu groups were fed for 16 weeks on regular standard diets, while rats from type II diabetes model groups (T2D) were fed a high-fat (HFS, Guangdong Medical Laboratory Animal Center, Guangzhou, China) diet for 16 weeks that consisted of 30% from total kcal from fats, 55% from carbohydrates and 15% from protein. […] Blood glucose and body weight were monitored 3 days after the STZ or citrate buffer injection, and once a week thereafter. […]

[2] = Caco-2 cell permeability (AP to BL transport); type: in vitro ADME, human; settings: human; Caco-2 monolayers, 10 μg/ml scutellarin, without IF; read-out: Papp, AP side to BL side
Description: (§2) Caco-2 cells were seeded in 12-well transport inserts at a density of 2 × 10^5 cells/cm^2 in DMEM. Cells were maintained at 37 °C in a humidified atmosphere containing 5% CO2 for 21 days. Monolayers with transendothelial electrical resistance values above 300 Ω cm^2 were used in this study. On the day of the transport experiments, the culture medium was replaced with hank’s balanced salt solution (HBSS). Before the assay, Caco-2 cells monolayers was rinsed twice and incubated with the transport medium for an hour. After removing the transport medium, scutellarin, Chit-DC-Scu, Chit-DC-VB12-Scu (10 μg/ml scutellarin) alone or in the presence of IF ([…], 20 μl of a 100 IU/ml solution) were add to the apical side (0.5 ml) and 1.5 ml DMEM was added to the basolateral side of Transwell inserts. Cells were maintained at 37 °C in a humidified atmosphere containing 5% CO2 with orbital shaking at 50 rpm throughout the assay. At pre-determined intervals of 0, 30, 60, 90 and 120 min, 50 μl of transport buffer at the basolateral side was collected and mixed with the same volume of methanol, and an equal amount of DMEM was instantly added to the basolateral side to maintain a constant dissolution volume. The assay was performed in triplicate. Concentrations of scutellarin, Chit-DC-Scu and Chit-DC-VB12-Scu in corresponding samples were assessed by HPLC [35, 36].

Caco-2 cell monolayers = assay: Caco-2 cell permeability (AP to BL transport); type: in vitro ADME, human; settings: estimated from Papp based on the previous research
Description: as §2

[3] = Pharmacokinetics study in vivo, single oral dose; settings: male, Sprague-Dawley, rat, rats, oral gavage, scutellarin dose 40 mg/kg, n = 6, mean ± SD; for half-life: plasma, po, 40 mg/kg
Description: Male Sprague–Dawley rats (weighing 220–250 g) were fasted for 12 h, but allowed water ad libitum the day before drug administration. Scutellarin, Chit-DC-Scu, and Chit-DC-VB12-Scu were resuspended in PBS and administered to rats (at the same scutellarin dose of 40 mg/kg) by oral gavage. Blood samples (0.2 ml) were collected from the tail vein of each rat before dosing and at 0.25, 0.5, 0.75, 1, 2, 3, 5, 8, 12, 24 h post-dosing. An equal volume of 0.9% saline solution was injected after each collection. Plasma samples were obtained by centrifugation at 10,000 rpm for 10 min immediately after blood collection and were stored at −20 °C until analysis. HPLC (Agilent 1100, USA) was used to determine the concentration of scutellarin in plasma.

[4] = system: central retinal artery of type II diabetic rats; assay: Color Doppler sonography of central retinal vasculature, type 2 diabetic model; type: in vivo, Sprague–Dawley rats; settings: 40 mg/kg/day scutellarin
Description: Type 2 diabetes was induced in male Sprague–Dawley rats (weighing 230–250 g, Experimental Animal Center of Sun Yat-sen University, China. Certificate No: SCXK (Q) 2011-0029). All animals were housed five per cage in a room and maintained at a constant temperature (22 °C) under a 12/12 h light/dark cycle. All procedures were carried out according to the National Institutes of Health Guide for Care and Use of Laboratory Animals and were approved by the Bioethics Committee of Sun Yat-sen University. Rats were randomly assigned to a control group, a Scu group (normal rats with 40 mg/kg/day scutellarin treatments), and five type II diabetes model groups (n = 8/group). The control and Scu groups were fed for 16 weeks on regular standard diets, while rats from type II diabetes model groups (T2D) were fed a high-fat (HFS, Guangdong Medical Laboratory Animal Center, Guangzhou, China) diet for 16 weeks that consisted of 30% from total kcal from fats, 55% from carbohydrates and 15% from protein. After 8 weeks on the HFS diet, rats in the T2D groups were fasted overnight and each rat received a single intraperitoneal injection of streptozotocin (STZ, Sigma, USA) at a dose of 30 mg/kg body weight the following morning while the rats in the control group were injected with an equal volume of citrate buffer. The STZ was freshly diluted in citrate buffer (0.1 mol/l, pH 4.0). After the injection, the HFS diet feeding was continued. Blood glucose and body weight were monitored 3 days after the STZ or citrate buffer injection, and once a week thereafter. […]
Prior to sacrifice, all rats were anesthetized and color Doppler sonography analysis of the right eye was performed. […] At least three measurements were recorded for each animal and the mean of the three readings was taken as the representative value. The resistivity index (RI) of the central retinal artery (CRA) was calculated by subtracting the diastolic velocity (DV) from the peak systolic velocity (SV) and then dividing by the systolic velocity [(SV − DV)/SV] […]

[5] = cited from earlier work
VEGFR2 = assay: Western blot of retinal homogenates, VEGFR2; type: in vivo, Sprague–Dawley rats; settings: diabetic rats, 40 mg/kg/day scutellarin, 8 weeks, compared to diabetic rats treated with or without Chit-DC
Description: as §1

[6] = system: retina of type II diabetic rats; assay: Retinal histopathology (hematoxylin and eosin), type 2 diabetic model; type: in vivo, Sprague–Dawley rats; settings: 40 mg/kg/day scutellarin
Description: as §1

VEGF = assay: Western blot of retinal homogenates, VEGF; type: in vivo, Sprague–Dawley rats; settings: diabetic rats, 40 mg/kg/day scutellarin, 8 weeks, compared to diabetic rats treated with or without Chit-DC
Description: as §1

[7] = T2D rats, intragastric, 8 weeks, compared to DM rats

Row | SMILES | solubility in distilled water (Solubility; distilled water) | solubility in methanol and PBS solution (Solubility; methanol and PBS solution (pH7.2)) | increase of Papp(AP-BL) [1] | expression of vWF in the retina (vWF) | Papp at 120 min, 10 μg/ml [2] | scutellarin absorbed by the small intestine (Caco-2 cell monolayers) | half-life ([3]; read-out: T1/2(α) (converted)) | half-life ([3]; read-out: T1/2(β) (converted)) | Cmax ([3]; plasma scutellarin) | Tmax ([3]; plasma scutellarin) | retinal blood flow velocity [4, 7] | retinal resistivity index (RI) [4, 7] | blood flow velocity or RI in normal rats ([4]; normal (non-diabetic) rats) | water solubility [5] | expression of VEGFR2 in the retina (VEGFR2) | retinal morphology (HE staining) in normal rats [6] | expression of VEGF in the retina (VEGF) | water solubility of triamcinolone acetonide acetate ([5]; free drug versus loaded in deoxycholic acid-modified chitosan nanoparticles)
1 | O=C(O)[C@H]1O[C@@H](Oc2cc3oc(-c4ccc(O)cc4)cc(=O)c3c(O)c2O)[C@H](O)[C@@H](O)[C@@H]1O [Scu, 4′,5,6-trihydroxyflavone-7-O-glucuronide] | poorly dissolved | soluble | 3.5 fold | downregulated | 0.32 ×10⁻⁶ cm/s | about 1% | 0.405 ± 0.055 h | 1.88 ± 0.105 h | 129 ± 85.5 ng/mL | 1.24 ± 0.025 h | increased blood flow velocities | reduced retinal RI values | No significant changes in blood flow velocity or RI | 160 µg/mL (≈ 346 µM) | downregulated | continuous with normal capillary structure | downregulated | –
2 | CC(=O)OCC(=O)[C@@]12OC(C)(C)O[C@@H]1C[C@H]1[C@@H]3CCC4=CC(=O)C=C[C@]4(C)[C@@]3(F)[C@@H](O)C[C@@]12C [triamcinolone acetonide acetate] | – | – | – | – | – | – | – | – | – | – | – | – | – | – | – | – | – | 300 µg/mL
